What is called pIC50 is the negative decadic logarithm of the IC50, by convention in mol/L.

This note sets out measurements from US20230085945A1, “ORTHOGONAL SAFETY SWITCHES TO ELIMINATE GENETICALLY ENGINEERED CELLS” (The Board of Trustees of the Leland Stanford Junior …, priority 2020, published 2023).

pIC50: −log10 of the molar value. A value given as a limit tells only on which side of the number the result lay.

Test [1] relates to NANOG mRNA and differentiation marker genes in NANOG^iCasp9-YFP hPSCs and differentiated cell-types. Put plainly: qPCR of NANOG and marker gene expression after AP20187. The format is cell-based, human. To be noted: for expression of differentiation markers in differentiated cell-types: AP20187 1 nM, 24 hours. How it is done: (§1) FIG. 9: Efficacy of the NANOG^iCasp9-YFP safety switch (related to FIG. 3). A) Undifferentiated NANOG^iCasp9-YFP hPSCs were treated with AP20187 at the indicated concentrations for 24 hours, and then the percentage of viable remaining cells was subsequently analyzed using FACS analysis (left) and alamar blue staining (right). For the FACS analysis, the percentage of cells shown represents viable cells (i.e., DAPI-negative cells obtained after DAPI staining) that were then gated for YFP+ (i.e., NANOG^+) cells. For the alamar blue analysis, wild-type hPSCs were used as a negative control. […] AP20187 doses equal to or greater than 100 nM may prevent efficient killing of NANOG^iCasp9-YFP hPSCs by considerably downregulating NANOG. Gene expression is depicted normalized to the reference gene YWHAZ (i.e., YWHAZ=1.0). C) Undifferentiated NANOG^iCasp9-YFP hPSCs were treated with the indicated doses of AP20187 for various lengths of time (6, 12, 24, 48, 72 hours) and then alamar blue assay was performed immediately thereafter to quantify the extent of cell death. […] D) Immunofluorescent imaging of NANOG^iCasp9-YFP hESCs in the undifferentiated state and after differentiation into day 6 sclerotome as marked by TWIST1 expression, both without and with treatment of cells with 1 nM AP20187 for 24 hours. […] The following marker genes were assessed in each respective cell-type: sclerotome (bone) progenitors (TWIST1, SOX9, PAX1, PAX9), liver progenitors (SOX17, HNF4A, AFP, TBX3), and forebrain (neural) progenitors (PAX6, FOXG1, OTX2, SIX3). F) Further validation of NANOG^iCasp9-YFP using a simulated mixed cell culture assay. NANOG^iCasp9-YFP undifferentiated hPSCs and hPSC-derived derived sclerotome cells were mixed at a 3:7 ratio, respectively. Mixed cells were treated with AP20187, and 24 hours post-treatment, FACS analysis was done to assess remaining NANOG^iCasp9-YFP hPSCs in culture.
RNA extraction, reverse transcription and quantitative PCR. Undifferentiated or differentiated hPSCs were lysed in […] of RLT Plus Buffer and RNA was extracted using the RNeasy Plus Mini Kit (Qiagen) according to the manufacturer's protocol. 300 ng of total RNA was reverse transcribed into cDNA for qPCR using the High-Capacity cDNA Reverse Transcription Kit (Applied Biosystems) according to the manufacturer's protocol. qPCR was performed in 384-well format as previously described (Loh et al., 2016) on a QuantStudio 5 qPCR machine (Thermo Fisher). Expression of all genes was first normalized to the levels of the reference gene YWHAZ, and then plotted relative to the levels of YWHAZ (i.e., 1.0=equivalent to YWHAZ). The following forward and reverse primer sequences were used to detect the expression of the respective genes: […]
For orientation: Quantitative PCR measures a nucleic acid by following its amplification.

Test [2] concerns undifferentiated NANOG^iCasp9-YFP hPSCs. Kind of test: Viability of undifferentiated NANOG^iCasp9-YFP hPSCs after AP20187 (FACS, alamar blue; dose and time course). The format is cell-based, human. How it is done: as §1
Alamar Blue proliferation assay—hESCs were cultured in mTeSR1 (in the presence or absence of AP20187 at the indicated concentrations). After 24 hours of AP20187 treatment, mTeSR1 media with Alamar Blue (concentration based on manufacturer's protocol) was changed for both untreated and treated samples. A control well containing media+Alamar Blue was used to assess blank wells and to therefore to measure and subtract fluorescence noise.
Flow cytometric quantification of viable cells—NANOG^iCasp9-YFP hESCs were dissociated into single cells with Accutase and 1×10^6 cells were plated per well in a 6-well plate pre-coated with Matrigel. […] Subsequently, to quantify the percentage of surviving cells, the cultures were dissociated with TrypLE Express. […] YFP^+ (i.e., NANOG^+) cells were analyzed (Beckman Coulter CytoFlex Analyzer) to count live cells for both untreated and AP20187-treated groups. […]
For orientation: Alamar Blue is a resazurin reagent that responds to reducing activity.

On to `CC[C@H](C(=O)N1CCCC[C@H]1C(=O)O[C@H](CCc1ccc(OC)c(OC)c1)c1cccc(OCC(=O)NCC(CNC(=O)COc2cccc([C@@H](CCc3ccc(OC)c(OC)c3)OC(=O)[C@@H]3CCCCN3C(=O)[C@@H](CC)c3cc(OC)c(OC)c(OC)c3)c2)CN(C)C)c1)c1cc(OC)c(OC)c(OC)c1` [AP20], for which the “expression of differentiation markers in differentiated cell-types” value in test [1] is on record as “not substantially effected”. In addition, the “expression of differentiation markers in differentiated cell-types” value in test [1] (listed as AP20187) is recorded as “did not substantially impact marker gene expression”. Moreover, the “doses that may prevent efficient killing by considerably downregulating NANOG” value in test [1] (NANOG^iCasp9-YFP hPSCs) was no less than 100 nM. The “NANOG mRNA expression in undifferentiated hPSCs” value in test [1] (increasing doses of AP20187) is recorded as “downregulated NANOG mRNA expression”. For the same compound, in test [2], the “concentration that activates the NANOG^iCasp9-YFP system” value is on record as 1 nM and the “duration of treatment that sufficed to eliminate hESCs” value is 12 h. Besides, in test [2] (1 nM AP20187), the “time to activity / cell death” value is no more than 12 h. Further, the pIC50 in test [2] (undifferentiated NANOG^iCasp9-YFP hPSCs) is 10.19.
